Measurements from article PMC12377313, “New 1E,1′E-hydrazine-bis(phenoxy-1,2,3-triazol-acetamide) derivatives as potent inhibitors against acetylcholinesterase, butyrylcholinesterase, and α-glucosidase” (RSC Advances, 2025).

Legend:
AChE [1] = biological target: T1, AChE (Homo sapiens, UniProt P22303); test: biochemical; format: biochemical; conditions: read-out: IC50 (nM) AChE
α-glucosidase [2] = biological target: T2, α-glucosidase (Saccharomyces cerevisiae, UniProt P53341); test: α-Glucosidase inhibition assay (p-NPG substrate); format: biochemical, yeast
Experimental: For this assay, the yeast form of α-glucosidase was used and p-nitrophenyl-α-D-glycopyranoside (p-NPG) was used as the substrate. The required solutions of these materials were prepared in a phosphate buffer solution (pH of 7.4 and a concentration of 5 mM). […] Subsequently, a mixture containing 200 μL of phosphate solution, 50 μL of the substrate, and 5–200 μL of the sample solution was pre-incubated at 35 °C for 3 min for α-glucosidase.

[3] = tested on: SH-SY5Y neuroblastoma cells; test: MTT cell viability assay, SH-SY5Y; format: cell-based, human; conditions: for Selectivity (selectivity index): HEK293 versus SH-SY5Y; for IC50: Homo sapiens, SH-SY5Y, 24 h, 24 h treatment, MTT, mean ± SD (n = 3), read-out: IC50 (μM) SH-SY5Y
Experimental: The cells were incubated at 37 °C in a humidified atmosphere of 5% CO2. Both cell lines were provided by the American Type Culture Collection (ATCC).[30,31]
Each concentration was tested in triplicate.
(§1) Following treatment, 10 μL of MTT solution (5 mg mL^−1 in PBS) was added to each well and incubated for an additional 4 hours under the same conditions. At the end of the incubation period, the medium containing MTT was carefully removed, and the formazan crystals formed by viable cells were solubilized in 100 μL of DMSO per well. The absorbance was measured at 570 nm using a microplate reader. The net absorbance (after blank subtraction) was used to calculate the percentage cell viability relative to the untreated control cells, which was set at 100%. All results were expressed as mean ± standard deviation (SD) of three independent experiments.[32,33]

[4] = tested on: HEK293 embryonic kidney cells; test: MTT cell viability assay, HEK293; format: cell-based; conditions: Homo sapiens, HEK293; 24 h treatment, MTT, mean ± SD (n = 3); read-out: IC50 (μM) HEK-293
Experimental: The human neuroblastoma cell line SH-SY5Y (ATCC® CRL-2266™) and HEK293 (ATCC® CRL-1573™) human embryonic kidney cells were grown in Dulbecco's Modified Eagle Medium/Nutrient Mixture F-12 (DMEM/F-12) culture containing 10% heat-inactivated fetal bovine serum (FBS) and 1% antibiotics. The cells were incubated at 37 °C in a humidified atmosphere of 5% CO2. Both cell lines were provided by the American Type Culture Collection (ATCC).[30,31]
SH-SY5Y (ATCC® CRL-2266™) and HEK293 (ATCC® CRL-1573™) cells were seeded into 96-well plates at a density of 5 × 10^3 cells per well, and allowed to adhere overnight in a humidified incubator at 37 °C with 5% CO2. After attachment, the cells were treated with eight different concentrations of the target compounds (200, 100, 50, 25, 12.5, 6.25, 3.125, and 1.5625 μM), prepared via serial 1 : 2 dilutions, for 24 hours. Each concentration was tested in triplicate.
as §1

α-glucosidase [5] = biological target: T2, α-glucosidase; test: Kinetic study (Lineweaver–Burk plots), α-glucosidase; format: biochemical
Experimental: In this regard, compound 10k for AChE and BChE and compound 10h for α-glucosidase were selected. The type of inhibition of these compounds was determined by Lineweaver–Burk plots. […] These indicated a competitive type of inhibition for compound 10k.

BChE [6] = biological target: T3, BChE (Homo sapiens, UniProt P06276); test: biochemical
AChE [7] = biological target: T1, AChE; test: Kinetic study (Lineweaver–Burk plots), AChE; format: biochemical
Experimental: (§2) […]. In this regard, compound 10k for AChE and BChE and compound 10h for α-glucosidase were selected. The type of inhibition of these compounds was determined by Lineweaver–Burk plots. […] These indicated a competitive type of inhibition for compound 10k.

BChE [8] = biological target: T3, BChE; test: Kinetic study (Lineweaver–Burk plots), BChE; format: biochemical
Experimental: as §2

T3 sequence (P06276 29-602): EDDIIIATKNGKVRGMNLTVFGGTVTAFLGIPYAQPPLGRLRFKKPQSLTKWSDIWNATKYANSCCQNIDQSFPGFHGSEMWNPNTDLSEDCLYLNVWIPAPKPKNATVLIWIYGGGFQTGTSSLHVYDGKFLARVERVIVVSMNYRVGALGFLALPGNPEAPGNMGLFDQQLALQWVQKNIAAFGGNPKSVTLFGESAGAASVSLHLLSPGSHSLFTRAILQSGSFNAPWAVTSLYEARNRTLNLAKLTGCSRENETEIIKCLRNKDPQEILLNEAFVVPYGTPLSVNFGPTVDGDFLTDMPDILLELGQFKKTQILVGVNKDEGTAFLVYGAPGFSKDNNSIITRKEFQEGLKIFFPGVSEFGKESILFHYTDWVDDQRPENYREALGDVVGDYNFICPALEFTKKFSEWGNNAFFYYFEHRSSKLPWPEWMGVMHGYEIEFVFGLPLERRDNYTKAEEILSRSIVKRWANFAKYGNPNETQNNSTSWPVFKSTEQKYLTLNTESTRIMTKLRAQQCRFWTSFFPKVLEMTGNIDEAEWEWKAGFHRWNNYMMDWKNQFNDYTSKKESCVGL
T2 sequence (P53341 whole entry): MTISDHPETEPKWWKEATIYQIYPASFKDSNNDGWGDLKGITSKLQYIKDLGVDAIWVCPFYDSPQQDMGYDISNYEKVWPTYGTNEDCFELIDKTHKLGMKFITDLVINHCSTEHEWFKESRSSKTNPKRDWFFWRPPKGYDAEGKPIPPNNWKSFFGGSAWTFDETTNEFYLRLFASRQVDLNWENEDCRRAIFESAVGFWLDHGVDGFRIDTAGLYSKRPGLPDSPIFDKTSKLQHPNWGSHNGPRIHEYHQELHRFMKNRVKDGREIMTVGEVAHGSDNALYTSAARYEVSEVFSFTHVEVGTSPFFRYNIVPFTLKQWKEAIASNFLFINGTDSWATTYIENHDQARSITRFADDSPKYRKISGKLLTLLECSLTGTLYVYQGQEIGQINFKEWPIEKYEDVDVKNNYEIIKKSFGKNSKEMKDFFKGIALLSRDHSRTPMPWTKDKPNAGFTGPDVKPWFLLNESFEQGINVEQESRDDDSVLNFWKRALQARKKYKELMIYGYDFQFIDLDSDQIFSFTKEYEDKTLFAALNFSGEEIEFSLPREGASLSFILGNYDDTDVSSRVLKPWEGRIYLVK
T1 sequence (P22303 32-614): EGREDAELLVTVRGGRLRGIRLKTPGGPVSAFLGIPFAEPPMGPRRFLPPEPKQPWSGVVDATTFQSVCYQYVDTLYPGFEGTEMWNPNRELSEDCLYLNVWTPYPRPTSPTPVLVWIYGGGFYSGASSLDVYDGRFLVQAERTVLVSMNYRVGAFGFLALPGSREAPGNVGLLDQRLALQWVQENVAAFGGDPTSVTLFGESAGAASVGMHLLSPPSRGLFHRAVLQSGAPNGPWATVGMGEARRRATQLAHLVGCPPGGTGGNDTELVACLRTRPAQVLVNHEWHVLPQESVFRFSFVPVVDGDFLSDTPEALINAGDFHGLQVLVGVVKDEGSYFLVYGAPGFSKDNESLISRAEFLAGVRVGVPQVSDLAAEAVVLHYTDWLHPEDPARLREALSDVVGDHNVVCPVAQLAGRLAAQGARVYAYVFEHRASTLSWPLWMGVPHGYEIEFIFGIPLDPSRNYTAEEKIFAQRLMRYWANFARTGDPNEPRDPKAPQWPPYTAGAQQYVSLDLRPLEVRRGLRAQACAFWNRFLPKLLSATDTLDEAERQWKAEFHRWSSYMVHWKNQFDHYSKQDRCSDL

## O=C(Cn1cc(COc2ccc(/C=N/N=C/c3ccc(OCc4cn(CC(=O)Nc5ccccc5Cl)nn4)cc3)cc2)nn1)Nc1ccccc1Cl [Compound 10h, 2,2′-((((((1E,1′E)-Hydrazine-1,2-diylidenebis(methaneylylidene))bis(4,1-phenylene))bis(oxy))bis(methylene))bis(1H-1,2,3-triazole-4,1-diyl))bis(N-(2-chlorophenyl)acetamide)]
AChE [1]
  IC50: 118 ± 9.17 nM
α-glucosidase [2]
  IC50: 23.9 ± 3.42 nM
[3]
  Selectivity (selectivity index): 10.6
  IC50: 7.42 ± 0.07 µM
[4]
  IC50: 78.38 ± 0.57 µM
α-glucosidase [5]
  type of inhibition against α-glucosidase: non-competitive
BChE [6]
  IC50: 19.4 ± 0.65 nM

## O=C(Cn1cc(COc2ccc(/C=N/N=C/c3ccc(OCc4cn(CC(=O)Nc5ccc(Cl)cc5Cl)nn4)cc3)cc2)nn1)Nc1ccc(Cl)cc1Cl [Compound 10k, 2,2′-((((((1E,1′E)-Hydrazine-1,2-diylidenebis(methaneylylidene))bis(4,1-phenylene))bis(oxy))bis(methylene))bis(1H-1,2,3-triazole-4,1-diyl))bis(N-(2,4-dichlorophenyl)acetamide)]
AChE [1]
  IC50: 105 ± 7.32 nM
α-glucosidase [2]
  IC50: 46.1 ± 3.26 nM
[3]
  Selectivity (selectivity index): 10.1
  IC50: 8.11 ± 0.07 µM
[4]
  IC50: 81.71 ± 0.56 µM
AChE [7]
  type of inhibition against AChE: competitive
BChE [8]
  type of inhibition against BChE: competitive
BChE [6]
  IC50: 10.1 ± 1.08 nM
